{
  "source": "paper PMC8184781",
  "about": "“A histone H3K4me1-specific binding protein is required for siRNA accumulation and DNA methylation at a subset of loci targeted by RNA-directed DNA methylation” (Nature Communications, 2021)",
  "key": {"RDM15": {"system": "RDM15", "assay": "Co-immunoprecipitation of H3K4me1 with wild-type RDM15, western blot", "type": "binding, Arabidopsis", "settings": "wild-type RDM15 (RDM15-3xFLAG/rdm15-3 plants), anti-FLAG IP", "excerpt": "(§1) H3K4me1 mark. a. Histone peptide array assay showing the binding preference of RDM15 to H3K4me1. Error bar represents s.d. (n=3 independent experiments). Data are presented as mean values +/- SD and the dots are the corresponding data points. b. ITC binding curves between the RDM15 tudor domain and H3K4me1 and H4K20me1 peptides indicate that H3K4me1 is the optimal binding partner for […]\n(§2) The RDM15-3xFLAG/rdm15-3 and mutated\n(§3) RDM15-3xMYC/rdm15-3 plants were used to perform protein immunoprecipitation with anti-FLAG and anti-MYC antibodies, respectively, and then anti-H3K4me1 antibody was used to detect H3K4me1 . d. Methylation specific PCR results showing the methylation levels at several RDM15 -dependent RdDM loci. McrBC, an enzyme cleaving methylated DNA, was used to digest genomic DNA from different pla nts with two biological replicates. Stronger PCR signal represent s lower methylation level. RDM15-3xFLAG rescued the hypomethylation phenotype in rdm15-3, however, the Mutated RDM15-3xMYC didn’t rescue the methylation phenotype .\nWe thank the reviewer for their comments. We will response the comments in the following with our response highlighted in red.\nThe authors have fully addressed my concerns.I think this paper meets the standard of a Nature […]\n(§4) Moreover, the H3K4me1 mark has been previously detected by ChIP-seq at whole-genome level in a previous study (Inagaki et al., EMBO J., 2017). […]"}, "RDM15 Tudor domain [1]": {"molecular_target": "T1, RDM15 Tudor domain (Arabidopsis thaliana, UniProt Q8GUP3)", "T1 construct": "hexahistidine-yeast Sumo (cleaved yes); made in house; host or cells: E. coli BL21(DE3)", "T1 sequence (Q8GUP3 599-663)": "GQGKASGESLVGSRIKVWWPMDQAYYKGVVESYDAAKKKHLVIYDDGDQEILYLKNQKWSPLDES", "assay": "Isothermal titration calorimetry (ITC), RDM15 Tudor domain (WT)", "type": "binding", "settings": "compared with H3K4me0, H3K4me2 and H3K4me3", "description": "ITC binding was measured using a Microcal PEAQ-ITC instrument (Malvern). The purified proteins were dialyzed against a buffer containing 100 mM NaCl, 20 mM HEPES, pH 7.0, and 2 mM β-mercaptoethanol and were diluted to a concentration of about 0.8–0.12 mM. The peptide was dissolved in the same buffer with a concentration of about 1.0–1.5 mM. All of the titrations were performed at 20 °C. The data were analyzed using the Origin 7.0 program."}, "[2]": {"system": "mutated RDM15 (W616A/Y623A/D643A/D645A)", "assay": "Co-immunoprecipitation of H3K4me1 with mutated RDM15, western blot", "type": "binding, Arabidopsis", "settings": "mutated RDM15-3xMYC/rdm15-3 plants, anti-MYC IP", "excerpt": "We expressed the mutated RDM15 (W616A/Y623A/D643A/D645A) incapable of binding to H3K4me1 in rdm15-3 mutant plants, generating mutated RDM15-3xMYC/rdm15-3 plants.\nas §1, §2, §3\nWe thank the reviewer for their comments. […]\nas §4"}, "RDM15 Tudor domain [3]": {"molecular_target": "T1, RDM15 Tudor domain", "assay": "Histone peptide array (MODified Histone Peptide Array), GST-fused RDM15", "type": "binding", "settings": "several hundred combinations of histone marks", "protocol": "Histone peptide array assay was performed using the MODified Histone Peptide Array kit (Active Motif) according to the manufacturer’s instructions. In brief, the slide was first blocked for 2 h at room temperature. After it was washed three times with TBST buffer [10 mM Tris·HCl (pH 7.5), 30 mM NaCl, and 0.05% Tween-20], the slide was incubated overnight with […] of GST-fused purified RDM15 protein at 4 °C in […] of binding buffer [50 mM Hepes (pH 8.0), 150 mM NaCl, 2 mM DTT, and 0.05% Nonidet P-40]. After it was washed three additional times with TBST buffer, the slide was incubated with anti-GST primary antibody at 1/3000 dilution and secondary antibody at 1/5000 dilution in TBST buffer for 1 h at room temperature, respectively. After the washing, the slide was visualized using Lumi-light ECL substrate (Roche). The intensity of the blotted slide was analyzed according to the instructions of the analysis software of the MODified Histone Peptide Array."}},
  "data": [
    {"smiles": "CNCCCC[C@H](NC(=O)[C@@H](NC(=O)[C@H](CCCNC(=N)N)NC(=O)[C@H](C)N)[C@@H](C)O)C(=O)N[C@@H](CCC(N)=O)C(=O)N[C@H](C(=O)N[C@@H](C)C(=O)N[C@@H](CCCNC(=N)N)C(=O)N[C@@H](CCCCN)C(=O)N[C@@H](CO)C(=O)N[C@H](C(=O)NCC(=O)NCC(=O)N[C@@H](CCCCN)C(=O)N[C@@H](C)C(=O)O)[C@@H](C)O)[C@@H](C)O", "note": "[H3K4me1]", "values": [
      {"measurement": "Co-immunoprecipitation of H3K4me1", "setting": "RDM15", "result": "co-immunoprecipitated by wild-type RDM15"},
      {"measurement": "Binding in words (ITC)", "setting": "RDM15 Tudor domain [1]", "result": "bound much more strongly to the monomethylation state of H3K4"},
      {"measurement": "Co-immunoprecipitation of H3K4me1", "setting": "[2]", "result": "not by mutated RDM15"},
      {"measurement": "Binding in words (histone peptide array)", "setting": "RDM15 Tudor domain [3]", "result": "significant binding"}
    ]}
  ]
}
